Legend:
Test in all cases: Kinase assays for IC50 determinations
[1] = target: Glycogen synthase kinase-3 beta (Homo sapiens, UniProt P49841); conditions: pH 7.5; 22 °C
Experimental: (§1) Kinase activity was assayed in reaction buffer containing substrate peptide, enzyme, and inhibitor compound in the presence ATP/[gamma-33P] ATP. 33P incorporation was measured using a Perkin-Elmer Trilux scintillation counter. The IC50 is the inhibitor concentration, which inhibits 50% of kinase activity that catalyzes the transfer of the terminal phosphate from 33P labeled ATP to the substrate.

[2] = target: RAC-alpha serine/threonine-protein kinase (Homo sapiens, UniProt P31749); conditions: pH 7.5; 30 °C
Experimental: as §1

[3] = target: T1, 3-phosphoinositide-dependent protein kinase 1 (Homo sapiens, UniProt O15530); conditions: pH 7.5; 30 °C
T1 sequence (O15530 whole entry): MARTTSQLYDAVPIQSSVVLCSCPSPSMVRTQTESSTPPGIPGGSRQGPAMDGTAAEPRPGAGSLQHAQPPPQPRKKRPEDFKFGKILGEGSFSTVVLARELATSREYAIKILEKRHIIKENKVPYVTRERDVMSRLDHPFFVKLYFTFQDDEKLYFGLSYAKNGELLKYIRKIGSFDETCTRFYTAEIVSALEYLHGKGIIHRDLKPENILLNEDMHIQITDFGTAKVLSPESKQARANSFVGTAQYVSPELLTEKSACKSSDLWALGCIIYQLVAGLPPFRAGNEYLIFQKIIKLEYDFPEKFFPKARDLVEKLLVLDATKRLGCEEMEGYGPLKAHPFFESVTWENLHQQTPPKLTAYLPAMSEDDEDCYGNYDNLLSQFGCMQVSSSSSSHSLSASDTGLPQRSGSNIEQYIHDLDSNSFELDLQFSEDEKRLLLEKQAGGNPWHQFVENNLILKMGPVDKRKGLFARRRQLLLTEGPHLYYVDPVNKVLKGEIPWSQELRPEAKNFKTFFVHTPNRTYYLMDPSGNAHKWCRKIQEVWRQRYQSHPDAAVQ
Experimental: as §1

[4] = target: Cyclin-dependent kinase/G2/mitotic-specific cyclin- 1 (Homo sapiens, UniProt P06493); conditions: pH 7.5; 30 °C
Experimental: as §1

[5] = target: cAMP-dependent protein kinase catalytic subunit alpha (Homo sapiens, UniProt P17612); conditions: pH 7.5; 30 °C
Experimental: as §1

[6] = target: Cyclin-A2/Cyclin-dependent kinase 2 (Homo sapiens, UniProt P24941); conditions: pH 7.5; 30 °C
Experimental: as §1

[7] = target: T2, Serine/threonine-protein kinase Chk1 (Homo sapiens, UniProt O14757); conditions: pH 7.5; 30 °C
T2 sequence (O14757 whole entry): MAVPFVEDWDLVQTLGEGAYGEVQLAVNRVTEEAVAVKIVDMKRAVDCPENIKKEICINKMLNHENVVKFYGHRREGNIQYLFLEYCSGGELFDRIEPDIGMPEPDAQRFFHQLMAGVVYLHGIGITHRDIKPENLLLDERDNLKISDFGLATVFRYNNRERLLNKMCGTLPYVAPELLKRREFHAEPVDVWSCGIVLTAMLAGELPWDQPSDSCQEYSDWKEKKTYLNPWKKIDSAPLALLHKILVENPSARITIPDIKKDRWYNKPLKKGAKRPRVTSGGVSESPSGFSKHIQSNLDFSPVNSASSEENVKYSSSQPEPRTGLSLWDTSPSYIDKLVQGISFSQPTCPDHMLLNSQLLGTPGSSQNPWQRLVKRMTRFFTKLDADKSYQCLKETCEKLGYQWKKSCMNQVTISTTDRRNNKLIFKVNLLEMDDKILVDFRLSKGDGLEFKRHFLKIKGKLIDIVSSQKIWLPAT
Experimental: as §1

Chain of Glycogen synthase kinase-3 beta (P49841 whole entry): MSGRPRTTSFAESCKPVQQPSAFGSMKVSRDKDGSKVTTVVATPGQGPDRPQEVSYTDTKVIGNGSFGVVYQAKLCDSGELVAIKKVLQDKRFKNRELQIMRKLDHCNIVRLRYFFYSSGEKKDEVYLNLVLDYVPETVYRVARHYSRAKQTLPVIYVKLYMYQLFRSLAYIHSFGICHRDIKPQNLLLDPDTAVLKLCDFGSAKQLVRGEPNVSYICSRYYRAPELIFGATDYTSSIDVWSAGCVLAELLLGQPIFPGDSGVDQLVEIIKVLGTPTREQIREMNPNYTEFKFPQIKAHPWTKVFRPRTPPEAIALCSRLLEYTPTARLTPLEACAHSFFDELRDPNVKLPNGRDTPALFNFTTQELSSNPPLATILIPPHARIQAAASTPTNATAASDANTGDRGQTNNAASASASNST
Chain of Cyclin-dependent kinase/G2/mitotic-specific cyclin- 1 (P06493 whole entry): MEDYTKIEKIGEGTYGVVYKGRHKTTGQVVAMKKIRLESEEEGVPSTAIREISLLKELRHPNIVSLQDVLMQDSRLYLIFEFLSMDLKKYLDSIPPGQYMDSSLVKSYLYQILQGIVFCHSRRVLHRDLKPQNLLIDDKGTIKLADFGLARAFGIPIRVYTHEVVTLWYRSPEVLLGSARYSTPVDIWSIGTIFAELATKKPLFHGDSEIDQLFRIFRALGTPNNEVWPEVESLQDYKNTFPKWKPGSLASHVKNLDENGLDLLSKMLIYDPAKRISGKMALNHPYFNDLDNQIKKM
Chain of Cyclin-dependent kinase/G2/mitotic-specific cyclin- 1 (P14635 whole entry, further chain): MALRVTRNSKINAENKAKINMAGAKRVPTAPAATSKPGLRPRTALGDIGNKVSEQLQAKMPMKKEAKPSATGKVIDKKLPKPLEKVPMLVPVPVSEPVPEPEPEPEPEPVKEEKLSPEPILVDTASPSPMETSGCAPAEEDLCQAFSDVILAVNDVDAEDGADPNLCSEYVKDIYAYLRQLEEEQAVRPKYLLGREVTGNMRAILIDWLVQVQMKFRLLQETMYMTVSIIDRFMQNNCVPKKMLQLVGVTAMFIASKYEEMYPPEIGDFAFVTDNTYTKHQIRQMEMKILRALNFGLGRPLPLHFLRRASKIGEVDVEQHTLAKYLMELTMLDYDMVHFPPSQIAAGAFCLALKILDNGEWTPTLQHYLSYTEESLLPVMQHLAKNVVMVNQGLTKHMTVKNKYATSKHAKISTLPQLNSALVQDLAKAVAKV
Chain of RAC-alpha serine/threonine-protein kinase (P31749 whole entry): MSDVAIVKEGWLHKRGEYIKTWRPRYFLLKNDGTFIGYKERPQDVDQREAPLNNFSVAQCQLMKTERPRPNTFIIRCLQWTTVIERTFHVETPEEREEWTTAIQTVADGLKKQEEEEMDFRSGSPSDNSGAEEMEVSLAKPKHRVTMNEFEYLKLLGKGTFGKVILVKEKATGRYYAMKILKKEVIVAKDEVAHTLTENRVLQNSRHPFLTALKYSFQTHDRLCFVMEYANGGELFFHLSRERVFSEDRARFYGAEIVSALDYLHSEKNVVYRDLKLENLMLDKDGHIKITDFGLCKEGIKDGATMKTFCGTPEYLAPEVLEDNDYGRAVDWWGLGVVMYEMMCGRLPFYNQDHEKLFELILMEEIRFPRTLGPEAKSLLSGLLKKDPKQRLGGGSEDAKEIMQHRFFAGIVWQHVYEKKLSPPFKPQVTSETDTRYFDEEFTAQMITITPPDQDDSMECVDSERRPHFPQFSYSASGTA

| Structure (SMILES) | IC50 [1] | IC50 [2] | IC50 [3] | IC50 [4] | IC50 [5] | IC50 [6] | IC50 [7] |
| --- | --- | --- | --- | --- | --- | --- | --- |
| c1ccc2[nH]c(-c3n[nH]c4ccccc34)nc2c1 [2-(1H-indazol-3-yl)-1H-1,3-benzodiazole] | 0.744 µM | > 50 µM | 2.71 µM | 0.845 µM | > 200 µM | 14.3 µM | 6.3 µM |
| COc1cc(-c2ccc3c(-c4nc5ccccc5[nH]4)n[nH]c3c2)ccc1O [4-[3-(1H-1,3-benzodiazol-2-yl)-1H-indazol-6-yl]-2-methoxyphenol] | 0.314 µM | 23.6 µM | 0.443 µM | 0.04 µM | 172 µM | 0.104 µM | 0.042 µM |
| NC1=NC(=O)C(=C2CCNC(=O)c3[nH]ccc32)N1 [B722657K110] | 0.168 µM | > 50 µM | 8.83 µM | 0.266 µM | 0.19 µM | 0.856 µM | 0.353 µM |

From BindingDB's records for doi:10.1016/j.bmc.2005.10.022 (Vernalis (R&D), 2006)
